# Reference: patent US9249147B2, “Tyrosine kinase inhibitors” (CHEMBRIDGE CORPORATION, priority 2008, dated 2016)
# Read-outs that look alike come from different tables or passages of the source.
# Experiments:
# [1] = Caco-2 (TC7) A-B Permeability test (pH 6.5/7.4); settings: human, A-B Permeability (TC7, pH 6.5/7.4), test concentration 1.0E−05 M
# [2] = Aqueous Solubility (PBS, pH 7.4); assay type: physicochemical; settings: pH 7.4, 2.0E−04 M; for solubility: pH 7.4, PBS
# hERG = hERG (Homo sapiens, UniProt Q12809); test: hERG Inhibition (Table 6E); assay type: cell-based; design: expressed in transfected cells; unit not given here
# Description: Compound (II) was initially tested at 1 μM concentration using a standard patch clamp protocol (Cerep ADMET Study 13170). The hERG channel was expressed in a human embryonic kidney (HEK293) cell line that lacks endogenous hERG channels. […] We have retested compound (II) in hERG assay in a range of lower concentrations to estimate IC50 of hERG inhibition more precisely (Qpatch 16 automated whole-cell patch clamp protocol in CHO-K1 cell line stably expressing hERG, Cerep hERG Study 13292). […] This kind of potency in hERG inhibition should not represent a significant clinical problem since the high degree of hERG inhibition would occur only at the compound concentrations above the expected therapeutic levels.
# IGF1R = target: T1, IGF1R (Homo sapiens, UniProt P08069); test: IGF1R kinase assay; assay type: biochemical; settings: Table 1; read-out: IGF1R IC50
# T1 construct: 6×His- or GST-tagged kinase domain fragments of the corresponding RTKs expressed in baculovirus system; host or cells: baculovirus system
# Description: (§1) To determine inhibition of several tyrosine kinases, such as IGF1R, InsR, Alk, TrkA and Jak2, kinase assays are conducted using either Kinase-Glo (Promega) or AlphaScreen (PerkinElmer) kinase assay platforms. The Kinase-Glo Luminescent Kinase Assay is a homogeneous method for measuring kinase activity by determining the amount of ATP remaining after a kinase reaction. The luminescent signal is proportional to the amount of ATP and inversely proportional to the amount of kinase activity. Tyrosine kinase PT66 AlphaScreen Assay is a high-sensitivity homogeneous, anti-phosphotyrosine antibody-mediated luminescent proximity method measuring incorporation of phosphate in synthetic poly(Glu-Tyr) substrate. The kinase preparations used consist of purified recombinant, 6×His- or GST-tagged kinase domain fragments of the corresponding RTKs expressed in baculovirus system.
# (§2) Compounds with a range of concentrations 40 μM, 20 μM, 10 μM, 5 μM, 2.5 μM, 1.25 μM, 0.625 μM, 0.3125 μM, 0.15625 μM and 0.078125 μM were incubated with NPM-ALK, which was produced in insect cells as a 6×HIS-tagged fusion protein and purified using nickel-charged resin chromatography, for 30 minutes at RT in the presence of 10 μM ATP and 7.0 ng biotinylated poly-GT. A 1:1 mixture of […] and donor beads was then added to the reaction and incubated for an additional 60 minutes at RT. The assay was conducted on a MultiPROBE liquid handling workstation (PerkinElmer) in a 384-well plate format with a total reaction volume of 40 μL per well. Working stocks of all compounds were dissolved in 100% DMSO and serial dilutions of the compounds were performed using kinase buffer (50 mM Tris-HCl (pH 7.5), 5 mM MgCl2, 5 mM MnCl2, 2 mM DTT (added freshly before use), 0.01% Tween-20) containing 5% DMSO. […] Data were collected as optical readings at 520-680 nm on a Fusion™ microplate analyzer (PerkinElmer), and IC50 and Ki values calculated using PRISM3.0 software (GraphPad Software, Inc., San Diego, Calif.). The same assay was also used with minor modifications to assess the IC50 and Ki values for selected compounds against five other tyrosine kinases (IRK, IGF1R, Flt3, Abl, Src), all of which were purchased from commercial vendors. PolyGT-Biotin was bought from CIS Biointernational Cat. #61GT0BLD; ATP—from Sigma Cat. # A7699; sodium orthovanadate—from Sigma Cat. #S-6508; phosphotyrosine (PT66) assay kit from PerkinElmer Cat. #6760602M; automated workstation tips (20 μL): PerkinElmer Cat. #6000657; and OptiPlate-384 (white)—from PerkinElmer Cat. #6007299.
# IRK = target: T2, IRK (Homo sapiens, UniProt P06213); test: IRK (insulin receptor kinase) assay; assay type: biochemical; settings: Table 1; read-out: IRK IC50
# T2 construct: 6×His- or GST-tagged kinase domain fragments of the corresponding RTKs expressed in baculovirus system; host or cells: baculovirus system
# Description: as §1, §2
# ALK = ALK (Homo sapiens, UniProt Q9UM73); test: ALK kinase assay (Kinase-Glo / AlphaScreen, purified NPM-ALK); assay type: biochemical; design: fused to the complete intracytoplasmic portion of ALK containing the functional tyrosine kinase domain; 6xHis; made in house; host or cells: insect cells; the other entry of the earlier key: NPM1 (P06748, Nucleophosmin); settings: Table 1; read-out: ALK IC50
# [3] = Caco-2, pH 6.5, Mean Permeability, mean of n = 2
# [4] = Caco-2, pH 6.5, Mean Recovery, mean of n = 2
# [5] = Caco-2, pH 6.5, Permeability 1st, 1st replicate
# [6] = Caco-2, pH 6.5, Permeability 2nd, 2nd replicate
# [7] = Caco-2, pH 6.5, Present Recovery 1st, 1st replicate
# [8] = Caco-2, pH 6.5, Present Recovery 2nd, 2nd replicate
# [9] = Tables 9C, 9D, read-out: Solubility Mean
# [10] = individual data, read-out: Solubility 1st/2nd
# T2 sequence (P06213 1023-1298 limits assumed): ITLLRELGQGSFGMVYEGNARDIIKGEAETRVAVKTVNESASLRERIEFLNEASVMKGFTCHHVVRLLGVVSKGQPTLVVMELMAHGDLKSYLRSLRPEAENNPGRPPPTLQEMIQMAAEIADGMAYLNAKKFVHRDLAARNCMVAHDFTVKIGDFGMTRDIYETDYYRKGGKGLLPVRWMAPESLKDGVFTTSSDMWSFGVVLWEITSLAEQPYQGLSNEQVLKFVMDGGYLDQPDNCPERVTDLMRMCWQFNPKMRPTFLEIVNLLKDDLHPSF
# Sequence of hERG (Q12809 whole entry): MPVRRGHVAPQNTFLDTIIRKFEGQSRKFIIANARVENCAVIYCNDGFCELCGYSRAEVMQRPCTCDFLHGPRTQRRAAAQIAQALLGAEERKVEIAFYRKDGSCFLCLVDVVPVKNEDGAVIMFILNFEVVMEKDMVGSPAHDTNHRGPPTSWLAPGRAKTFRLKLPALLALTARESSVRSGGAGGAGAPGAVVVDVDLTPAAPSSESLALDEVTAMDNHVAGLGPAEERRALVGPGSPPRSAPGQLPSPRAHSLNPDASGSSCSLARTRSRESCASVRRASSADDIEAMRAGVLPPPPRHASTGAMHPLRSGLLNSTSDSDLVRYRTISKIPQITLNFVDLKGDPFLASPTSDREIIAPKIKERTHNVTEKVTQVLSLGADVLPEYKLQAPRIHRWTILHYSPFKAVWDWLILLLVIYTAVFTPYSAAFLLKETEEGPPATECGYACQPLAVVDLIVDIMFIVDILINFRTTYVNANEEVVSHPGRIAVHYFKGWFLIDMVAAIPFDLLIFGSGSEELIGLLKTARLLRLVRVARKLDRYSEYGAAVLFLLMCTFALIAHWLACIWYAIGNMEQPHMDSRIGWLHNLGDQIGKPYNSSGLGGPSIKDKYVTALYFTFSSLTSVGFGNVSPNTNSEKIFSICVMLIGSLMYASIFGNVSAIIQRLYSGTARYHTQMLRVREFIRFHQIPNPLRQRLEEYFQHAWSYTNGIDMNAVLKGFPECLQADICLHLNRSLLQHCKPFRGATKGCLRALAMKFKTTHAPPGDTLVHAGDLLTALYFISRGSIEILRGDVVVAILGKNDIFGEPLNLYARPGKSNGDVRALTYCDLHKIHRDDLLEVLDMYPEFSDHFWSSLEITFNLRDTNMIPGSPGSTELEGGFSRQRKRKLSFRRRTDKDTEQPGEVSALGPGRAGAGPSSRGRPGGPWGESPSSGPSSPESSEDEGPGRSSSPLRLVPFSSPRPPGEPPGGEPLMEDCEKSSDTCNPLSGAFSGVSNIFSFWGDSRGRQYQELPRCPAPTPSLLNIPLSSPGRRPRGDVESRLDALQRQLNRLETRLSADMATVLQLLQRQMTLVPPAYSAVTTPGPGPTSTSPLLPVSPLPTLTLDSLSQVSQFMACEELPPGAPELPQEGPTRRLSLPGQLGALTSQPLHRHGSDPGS
# T1 sequence (P08069 999-1274 limits assumed): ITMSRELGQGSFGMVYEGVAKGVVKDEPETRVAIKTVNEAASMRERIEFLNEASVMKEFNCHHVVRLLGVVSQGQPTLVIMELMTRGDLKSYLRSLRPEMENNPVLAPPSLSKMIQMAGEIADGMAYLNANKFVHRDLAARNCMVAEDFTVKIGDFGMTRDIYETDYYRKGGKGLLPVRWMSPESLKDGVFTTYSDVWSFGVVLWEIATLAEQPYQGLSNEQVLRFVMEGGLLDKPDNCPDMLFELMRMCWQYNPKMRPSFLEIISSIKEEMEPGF
# Sequence of ALK (Q9UM73 with tags, fused parts or gaps): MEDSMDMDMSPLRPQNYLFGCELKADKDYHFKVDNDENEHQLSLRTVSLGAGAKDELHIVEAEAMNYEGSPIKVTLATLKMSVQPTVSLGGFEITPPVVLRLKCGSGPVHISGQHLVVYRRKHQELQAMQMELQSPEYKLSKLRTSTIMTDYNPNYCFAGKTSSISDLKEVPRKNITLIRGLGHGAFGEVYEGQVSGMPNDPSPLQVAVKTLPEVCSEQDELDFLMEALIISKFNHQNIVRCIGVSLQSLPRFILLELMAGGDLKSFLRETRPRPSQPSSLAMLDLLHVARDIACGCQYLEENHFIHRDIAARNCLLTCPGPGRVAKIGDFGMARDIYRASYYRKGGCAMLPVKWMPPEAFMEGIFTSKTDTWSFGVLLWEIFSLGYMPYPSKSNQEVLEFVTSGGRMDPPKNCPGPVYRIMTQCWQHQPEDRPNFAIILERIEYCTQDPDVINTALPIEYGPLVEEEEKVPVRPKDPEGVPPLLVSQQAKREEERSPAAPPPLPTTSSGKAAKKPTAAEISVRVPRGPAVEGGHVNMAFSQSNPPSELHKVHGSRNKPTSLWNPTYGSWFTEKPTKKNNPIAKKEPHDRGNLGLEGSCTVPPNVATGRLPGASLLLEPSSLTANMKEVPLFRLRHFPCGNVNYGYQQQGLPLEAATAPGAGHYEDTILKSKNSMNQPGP
smiles,measurement,setting,value
CNC(=C[N+](=O)[O-])NCCSCc1ccc(CN(C)C)o1 [Ranitidine],Papp A→B at 10 µM,[1]; [3],0.6 ×10⁻⁶ cm/s
same,recovery at 10 µM,[1]; [4],95%
same,Papp A→B at 10 µM,[1]; [5],0.58 ×10⁻⁶ cm/s
same,Papp A→B at 10 µM,[1]; [6],0.64 ×10⁻⁶ cm/s
same,recovery at 10 µM,[1]; [7],82%
same,recovery at 10 µM,[1]; [8],109%
"CC(=O)N1CCN(c2ccc(OCC3COC(Cn4ccnc4)(c4ccc(Cl)cc4Cl)O3)cc2)CC1 (stereo not drawn) [Ketoconazole, ketoconazole, reference compound]",Solubility 1st/2nd,[2]; individual data,109.58 μm
same,solubility,[2]; [9],108 µM
same,solubility,[2]; [10],107 µM
Cc1ccc(F)cc1C[C@H](C)Nc1cc[nH]c(=O)c1-c1nc2cc3c(cc2[nH]1)CN(CCN(C)C)C3=O [drawing 365],hERG Inhibition,hERG; 25,5.8
same,hERG Inhibition,hERG; 100,8.8
same,hERG Inhibition,hERG; 1000,6.8
same,hERG Inhibition,hERG; column head 500,11.1
same,hERG Inhibition,hERG; column head 3000,27.1
same,hERG Inhibition,hERG; column head 5000,50.0
C[C@@H](Cc1cc(F)cc(F)c1F)Nc1cc[nH]c(=O)c1-c1nc2cc3c(cc2[nH]1)CN(CCN1CCCC1)C3=O [drawing 366],hERG Inhibition,hERG; 25,6.00
same,hERG Inhibition,hERG; 100,9.7
same,hERG Inhibition,hERG; 1000,7.30
same,hERG Inhibition,hERG; column head 500,7.10
same,hERG Inhibition,hERG; column head 3000,33.20
same,hERG Inhibition,hERG; column head 5000,57.80
CC(CCc1ccccc1)NCC(O)c1ccc(O)c(C(N)=O)c1 (stereo not drawn) [Labetalol],Papp A→B at 10 µM,[1]; [3],6 ×10⁻⁶ cm/s
same,recovery at 10 µM,[1]; [4],90%
same,Papp A→B at 10 µM,[1]; [5],5.8 ×10⁻⁶ cm/s
same,Papp A→B at 10 µM,[1]; [6],6.21 ×10⁻⁶ cm/s
same,recovery at 10 µM,[1]; [7],91%
same,recovery at 10 µM,[1]; [8],88%
O=C1NC(=O)C(c2ccccc2)(c2ccccc2)N1 [Phenytoin],Solubility 1st/2nd,[2]; individual data,86.44 μm
same,solubility,[2]; [9],87 µM
same,solubility,[2]; [10],87.7 µM
C[C@@H](Cc1cc(F)ccc1Cl)Nc1cc[nH]c(=O)c1-c1nc2cc3c(cc2[nH]1)CN(CCN1CCCC1)C3=O,IC50,IGF1R,250 to 1000 nM
same,IC50,IRK,250 to 1000 nM
same,IC50,ALK,100 to 250 nM
C[C@@H](Cc1cc(F)ccc1Br)Nc1cc[nH]c(=O)c1-c1nc2cc3c(cc2[nH]1)CN(CCN1CCCC1)C3=O [drawing 330],IC50,IGF1R,250 to 1000 nM
same,IC50,IRK,100 to 250 nM
same,IC50,ALK,< 10 nM
COc1ccc(F)cc1C[C@H](C)Nc1cc[nH]c(=O)c1-c1nc2cc3c(cc2[nH]1)CN(CCN(C)C)C3=O,IC50,IGF1R,100 to 250 nM
same,IC50,IRK,250 to 1000 nM
same,IC50,ALK,10 to 100 nM
O=C(CCCN1CCC(O)(c2ccc(Cl)cc2)CC1)c1ccc(F)cc1 [Haloperidol],Solubility 1st/2nd,[2]; individual data,61.29 μm
same,solubility,[2]; [9],61.9 µM
same,solubility,[2]; [10],62.5 µM
CN1CCC(N2C(=O)c3cc4nc(-c5c(N[C@@H](CO)Cc6ccccc6)cc[nH]c5=O)[nH]c4cc3C2=O)CC1,IC50,IGF1R,> 1000 nM
same,IC50,IRK,> 1000 nM
same,IC50,ALK,100 to 250 nM
C[C@@H](Cc1cc(F)cc(F)c1F)Nc1cc[nH]c(=O)c1-c1nc2cc3c(cc2[nH]1)CN(CCN(C)C)C3=O [drawing 367],hERG Inhibition,hERG; 25,6.60
same,hERG Inhibition,hERG; 100,10.20
same,hERG Inhibition,hERG; column head 500,13.10
COc1cc2c(c(OC)c1OC)-c1ccc(OC)c(=O)cc1[C@@H](NC(C)=O)CC2 [Colchicine],recovery at 10 µM,[1]; [4],97%
same,Papp A→B at 10 µM,[1]; [5],0.9 ×10⁻⁶ cm/s
same,Papp A→B at 10 µM,[1]; [6],0.05 ×10⁻⁶ cm/s
same,recovery at 10 µM,[1]; [7],99%
same,recovery at 10 µM,[1]; [8],65%
CCc1ccccc1C[C@H](C)Nc1cc[nH]c(=O)c1-c1nc2cc3c(cc2[nH]1)CN(CCN1CCCC1)C3=O,IC50,IGF1R,> 1000 nM
same,IC50,IRK,250 to 1000 nM
same,IC50,ALK,10 to 100 nM
Cc1ccc(F)cc1C[C@H](C)Nc1cc[nH]c(=O)c1-c1nc2cc3c(cc2[nH]1)C(=O)N(CCN1CCCC1)C3 [drawing 364],hERG Inhibition,hERG; 25,22.5
same,hERG Inhibition,hERG; 100,28
same,hERG Inhibition,hERG; 1000,50.4
same,hERG Inhibition,hERG; column head 500,38.5
C[C@H](Nc1cc[nH]c(=O)c1-c1nc2cc3c(cc2[nH]1)C(=O)N(CCCN1CCCC1)C3)[C@H](O)c1ccccc1,IC50,IGF1R,250 to 1000 nM
same,IC50,IRK,250 to 1000 nM
same,IC50,ALK,100 to 250 nM
Cc1ccc(F)cc1C[C@H](C)Nc1cc[nH]c(=O)c1-c1nc2c(C)c3c(cc2[nH]1)CN(CCN1CCCC1)C3=O [drawing 321],IC50,IGF1R,100 to 250 nM
same,IC50,IRK,100 to 250 nM
same,IC50,ALK,< 10 nM
C[C@@H](Cc1cccs1)Nc1cc[nH]c(=O)c1-c1nc2cc3c(cc2[nH]1)C(=O)N(CCCN1CCCC1)C3 [drawing 259],IC50,IGF1R,250 to 1000 nM
same,IC50,IRK,100 to 250 nM
same,IC50,ALK,100 to 250 nM
COc1cc(F)c(F)c(C[C@H](C)Nc2cc[nH]c(=O)c2-c2nc3cc4c(cc3[nH]2)CN(CCN2CCCC2)C4=O)c1OC,IC50,IGF1R,> 1000 nM
same,IC50,IRK,250 to 1000 nM
same,IC50,ALK,10 to 100 nM
C[C@@H](Cc1cccs1)Nc1cc[nH]c(=O)c1-c1nc2cc3c(cc2[nH]1)C(=O)N(CCN1CCCC1)C3,IC50,IGF1R,250 to 1000 nM
same,IC50,IRK,100 to 250 nM
same,IC50,ALK,250 to 1000 nM
C[C@@H](Cc1c(F)c(F)cc(F)c1F)Nc1cc[nH]c(=O)c1-c1nc2cc3c(cc2[nH]1)CN(CCN1CCCC1)C3=O [drawing 345],IC50,IGF1R,> 1000 nM
same,IC50,IRK,250 to 1000 nM
same,IC50,ALK,< 10 nM
